Source: paper PMC8187775, “Metabolism and Tissue Distribution of Chelerythrine and Effects of Macleaya Cordata Extracts on Liver NAD(P)H Quinone Oxidoreductase” (Frontiers in Veterinary Science, 2021)

Columns and labels:
rat liver cytosol = assay: Effect of inhibitors on chelerythrine iminium bond reduction to DHCHE by rat liver cytosol; format: in vitro ADME; conditions: 100 μmol/L inhibitor, 0.25 mg/mL cytosol protein, 2 mM NADPH, 10 μg/mL chelerythrine, 15 min
Procedure: In brief, the incubation mixture consisted of 0.25 mg/mL cytosol protein, 5 mM MgCl2, 100 μmol/L inhibitor, and 2 mM NADPH in 0.05 M Tris-HCl buffer (pH 7.4). The inhibitors were dicoumarol (quinone oxidoreductase 1), quercetin (quinone oxidoreductase 2, carbonyl reductase), menadione (aldehyde oxidase, carbonyl reductase), and 7-hydroxycoumarin (xanthine oxidase). The reaction was preincubated at 37°C for 5 min. […] The incubation mixtures without the inhibitor or cytosol protein acted as the blank control. The reaction was stopped by adding 200 μL ice-cold acetonitrile after 15 min, and the mixture was vortexed and centrifuged at 12,000 g for 15 min. […] Phenomenex Co. USA). The mobile phase consisted of a 30/70 (v/v) mixture of solvent A (0.2% aqueous acetic acid solution) and solvent B (acetonitrile). The injection dose was 10 μl and the flow rate was 1 mL/min. The column temperature was set to 35°C and the detection wavelength was set to 285 nm. The DHCHE standard curve varied linearly in the concentration range from 0.050 to 10 μg/mL. […] The lower limit of quantification was 0.050 μg/mL.

in vivo = assay: in vivo
Procedure: Tissue distribution was carried out in eighteen SD rats (160–180 g, nine males and nine females). Twelve rats (six male and six female) were intragastrically administered with M. cordata extracts at a single dosage of 5 mg/kg (containing about 2 mg/kg dose of sanguinarine and 1 mg/kg dose of chelerythrine) in water with the dissolving aid of Tween-80 for 3 weeks. Three male and three female rats were given the same amount of water as the blank control group by intragastric administration.
(§1) The preparations of plasma, urine, feces, and tissues were pretreatments according to our current study ([19]).
The controls of the operating parameters were as follows: capillary voltage, 3,500 V; EM voltage, 200 V; dry gas (N2) flow rate, 12 L/min; ion source temperature, 350°C; nebulizer, 25 psi.
The proposed method was validated by evaluation of specificity, accuracy, precision, LOD, and LOQ.

[1] = Metabolite profile of chelerythrine in plasma, urine and feces of rats after intragastric chelerythrine (HPLC/QqTOF-MS)
Procedure: Ten SD rats (160–180 g, five males and five females) were individually placed in stainless steel metabolic cages. […] Chelerythrine in water with the dissolving aid of Tween-80 was intragastrically administered to rats at a dose of 10 mg/kg. One milliliter whole blood samples were collected from retro orbital sinus with a heparinized blood collection tube at 3 h following drug dosing. Each collected blood sample was centrifuged at 3,000 rpm at 4°C for 10 min to obtain plasma samples. […] All samples were collected from female and male rats and stored at −70°C.
as §1
(§2) The injection volume was 5 μL.
Nitrogen was used as atomization gas, and the flow rate was 9 L/min. The parameters of the mass spectrometer were as follows: nozzle voltage 1 kv, capillary voltage 4.0 kv, sheath gas temperature 350°C, sheath gas flow rate 11 L/min, nebulizer voltage 35 psig. The quarantine window was set at 1 amu. The instrument automatically performed the internal mass calibration though the automated calibrate transfer system. […] All the data acquisition was controlled by Agilent Mass Hunter software (version B.01.03 Build 1.3.157.0 2), and the Agilent Mass Hunter software (Qualitative Analysis B.04.0) was used to accurately take mass measurements of each peak from the total ion chromatograms. Then, these metabolites were subjected to accurate EIC, and the acceptance or rejection was decided according to the peak appearing in the EIC. Structural elucidations of chelerythrine metabolites were carried out on the basis of the mass change from the metabolite or parent drug, the predicted elemental compositions, and the interpretation of accurate MS/MS spectra.

[2] = design: method as in none printed; conditions: no species, dose or reference given; cited from earlier work
[3] = Chelerythrine/sanguinarine and metabolites in rat tissues after 3 weeks of intragastric M. cordata extracts (HPLC/QqTOF-MS); format: in vivo
Procedure: Tissue samples including cecal contents, lung, heart, liver, kidney, and spleen were collected at 24 and 48 h after the last administration and stored at −70°C.
as §2
The quarantine window was set at 1 amu.

[4] = biological target: T1, NAD(P)H quinone oxidoreductase (NQO1) (Rattus norvegicus, UniProt P05982); assay: In vitro inhibition of rat cytosolic NQO1 activity (DCPIP reduction); format: biochemical; conditions: for NQO1 activities: compound 40.00 μM, control 67.14 ± 4.82; for NQO1 activities / Effect on NQO1 activity: rat liver cytosol; for Effect on NQO1 activity: in vitro
T1 construct: 50 μg/mL rat liver cytosol; from tissue; host or cells: rat liver cytosol
T1 sequence (P05982 2-274 limits assumed): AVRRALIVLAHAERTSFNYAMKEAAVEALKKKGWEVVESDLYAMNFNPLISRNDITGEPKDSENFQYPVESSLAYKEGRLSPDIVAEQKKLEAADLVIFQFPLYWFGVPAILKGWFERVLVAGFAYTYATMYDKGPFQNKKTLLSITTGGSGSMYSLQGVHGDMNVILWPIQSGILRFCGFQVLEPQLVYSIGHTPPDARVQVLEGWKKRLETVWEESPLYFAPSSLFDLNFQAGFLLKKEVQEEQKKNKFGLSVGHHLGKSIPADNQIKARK
Procedure: Any change in absorbance was monitored at 620 nm, and NQO1 activity was calculated by using the extinction coefficient for DCPIP (ε = 21 mM^−1cm^−1) and expressed as nanomles of DCPIP reduced per minute per milligram of protein.
The inhibitory effects of sanguinarine and chelerythrine were determined by the incubation of the reaction mixture with or without substrate. […] All of the incubations and sample preparations were carried out as described for the NQO1 assay above.

[5] = Metabolite profile of sanguinarine in plasma, urine and feces of rats after intragastric M. cordata extracts; format: in vivo, rat

O=c1ccc2ccc(O)cc2o1 [7-hydroxycoumarin]
Effect on iminium bond reduction of chelerythrine (DHCHE formation) in rat liver cytosol (rat liver cytosol): could inhibit

COc1ccc2c(c[n+](C)c3c4cc5c(cc4ccc23)OCO5)c1OC [Chelerythrine]
Concentrations in (others) tissues (in vivo; both, SD, rat, in vivo): < 15 ng/g | concentration at 24 h (in vivo; both, SD, rat, in vivo, Concentration in spleen): 44 ng/mL | concentration at 48 h (in vivo; both, SD, rat, in vivo, Concentration in the liver): 20.6 ng/mL | Detection in plasma ([1]; male and female rats, three hours after intragastric chelerythrine): no parent drug and metabolites were detected | Cmax [2]: 5.06 ng/mL | T1/2 [2]: 2.82 h | Tmax [2]: 1.67 h | Found in spleen, lung, kidney, liver or heart by HPLC/QqTOF-MS [3]: no sanguinarine and chelerythrine or their metabolites were found | NQO1 activities [4]: 64.90 ± 4.24 nanomolars of 2,6-dichlorophenolindophenol reduced per minute per milligram of protein | Effect on NQO1 activity [4]: weak impact

COc1ccc2c(c1OC)CN(C)c1c-2ccc2cc3c(cc12)OCO3 [DHCHE, dihydrochelerythrine]
Found in feces ([1]; rat, in vivo): found | Observed in feces ([1]; rat, in vivo): observed

O=c1oc2ccccc2c(O)c1Cc1c(O)c2ccccc2oc1=O [Dicoumarol, dicoumarol]
Effect on iminium bond reduction of chelerythrine (DHCHE formation) in rat liver cytosol (rat liver cytosol): could inhibit

CN1Cc2c(ccc3c2OCO3)-c2ccc3cc4c(cc3c21)OCO4 [Metabolite S1, dihydrosanguinarine]
Observed in rats in vivo (feces 0–24 h) ([5]; 5 mg/kg M. cordata extracts intragastric): observed

C[n+]1cc2c3c(ccc2c2ccc4cc5c(cc4c21)OCO5)OCO3 [Sanguinarine]
concentration at 24 h (in vivo; both, SD, rat, in vivo, 5 mg/kg, Residue in heart, 24 h after last dose, M. cordata extracts 5 mg/kg intragastric for 3 weeks): 2.91 ng/g | concentration at 48 h (in vivo; both, SD, rat, in vivo, 5 mg/kg, Residue in heart, 48 h after last dose, M. cordata extracts 5 mg/kg intragastric for 3 weeks): 2.57 ng/g | concentration at 24 h (in vivo; both, SD, rat, in vivo, 5 mg/kg, Residue in kidney, 24 h after last dose, M. cordata extracts 5 mg/kg intragastric for 3 weeks): 3.77 ng/g | concentration at 48 h (in vivo; both, SD, rat, in vivo, 5 mg/kg, Residue in kidney, 48 h after last dose, M. cordata extracts 5 mg/kg intragastric for 3 weeks): 5.65 ng/g | concentration at 24 h (in vivo; both, SD, rat, in vivo, 5 mg/kg, Residue in liver, 24 h after last dose, M. cordata extracts 5 mg/kg intragastric for 3 weeks): 10.4 ng/g | concentration at 48 h (in vivo; both, SD, rat, in vivo, 5 mg/kg, Residue in liver, 48 h after last dose, M. cordata extracts 5 mg/kg intragastric for 3 weeks): 9.8 ng/g | concentration at 24 h (in vivo; both, SD, rat, in vivo, 5 mg/kg, Residue in lung, 24 h after last dose, M. cordata extracts 5 mg/kg intragastric for 3 weeks): 2.29 ng/g | concentration at 48 h (in vivo; both, SD, rat, in vivo, 5 mg/kg, Residue in lung, 48 h after last dose, M. cordata extracts 5 mg/kg intragastric for 3 weeks): 2.01 ng/g | concentration at 24 h (in vivo; both, SD, rat, in vivo, 5 mg/kg, Residue in spleen, 24 h after last dose, M. cordata extracts 5 mg/kg intragastric for 3 weeks): 2.01 ng/g | concentration at 48 h (in vivo; both, SD, rat, in vivo, 5 mg/kg, Residue in spleen, 48 h after last dose, M. cordata extracts 5 mg/kg intragastric for 3 weeks): 1.91 ng/g | Concentrations in other tissues (in vivo; tissues other than chelerythrine in liver 48 h and spleen 24 h): < 11 ng/g | Found in spleen, lung, kidney, liver or heart by HPLC/QqTOF-MS [3]: no sanguinarine and chelerythrine or their metabolites were found | NQO1 activities [4]: 45.08 ± 4.34 nanomolars of 2,6-dichlorophenolindophenol reduced per minute per milligram of protein | IC50 ([4]; rat liver cytosol 50 μg/mL, 40 μM DCPIP, 0.2 mM NADH, 0–40 μM compound): 112 ± 6.17 µM | Effect on NQO1 activity [4]: statistically significant decline | Observed in plasma at 3 h and urine of 0–24 h ([5]; rats, after intragastric M. cordata extracts): No parent drug or metabolites were observed

CC1=CC(=O)c2ccccc2C1=O [menadione]
Effect on iminium bond reduction of chelerythrine (DHCHE formation) in rat liver cytosol (rat liver cytosol): could inhibit

O=c1c(O)c(-c2ccc(O)c(O)c2)oc2cc(O)cc(O)c12 [quercetin]
Effect on iminium bond reduction of chelerythrine (DHCHE formation) in rat liver cytosol (rat liver cytosol): could inhibit
